system: not given; details: not given

Structure (SMILES) | melting point
N=C(N)c1c[nH]c2ccc(CCNC(=O)c3ccc(-n4cccc4)nc3)cc12 [Example 1ab, N-(2-[3-Carbamimidoylindol-5-yl]ethyl)-6-pyrrol-1-ylnicotinamide] | 213 to 214 °C
N=C(N)c1c[nH]c2ccc(CCNC(=O)c3ccc(-n4cccn4)nc3)cc12 [Example 1ac, N-(2-[3-Carbamimidoylindol-5-yl]ethyl)-6-pyrazol-1-ylnicotinamide] | 235 to 236 °C
COc1ccc(-c2ccc(C(=O)NCCc3ccc4c(c3)c(C(=N)N)cn4C)cc2)cn1 [Example 1ad, N-(2-[3-Carbamimidoyl-1-methylindol-5-yl]ethyl)-4-(6-methoxypyrid-3-yl)benzamide] | 237 to 238 °C
CN(C)CCn1cc(-c2ccc(C(=O)NCCc3ccc4[nH]cc(C(=N)N)c4c3)cc2)ccc1=O [Example 1ap, N-(2-[3-Carbamimidoylindol-5-yl]ethyl)-4-(1-[2-dimethylaminoethyl]-6-oxo-1,6-dihydropyridin-3-yl)benzamide] | 94 to 97 °C
N=C(N)c1c[nH]c2ccc(CCNC(=O)c3ccc(-c4ccc(=O)n(CC(N)=O)c4)cc3)cc12 [Example 1aq, N-(2-[3-Carbamimidoylindol-5-yl]ethyl)-4-(1-carbamoylmethyl-6-oxo-1,6-dihydropyridin-3-yl)benzamide] | 244 to 245 °C
N=C(N)c1c[nH]c2ccc(CCNC(=O)c3ccc(-c4ccccn4)s3)cc12 [Example 1c, 5-(Pyrid-2-yl)-thiophene-2-carboxylic acid 2-(3-carbamimidoyl-5-indolyl)ethyl amide] | 198 to 200 °C
N=C(N)c1c[nH]c2ccc(CCNC(=O)c3ccc(-n4ccnc4)cc3)cc12 [Example 1g, N-(2-[3-Carbamimidoylindol-5-yl]ethyl)-4-imidazol-1-ylbenzamide] | 191 to 194 °C
N=C(N)c1c[nH]c2ccc(CCNC(=O)c3ccc(-c4cnc[nH]4)cc3)cc12 [Example 1h, N-(2-[3-Carbamimidoylindol-5-yl]ethyl)-4-(3H-imidazol-4-yl)benzamide] | 52 to 54 °C
N=C(N)c1c[nH]c2ccc(CCNC(=O)c3ccc(-c4ncns4)cc3)cc12 [Example 1i, N-(2-[3-Carbamimidoylindol-5-yl]ethyl)-4-(1,2,4)thiadiazol-5-ylbenzamide] | 222 to 224 °C
COc1ccc(-c2ccc(C(=O)NCCc3ccc4[nH]cc(C(=N)N)c4c3)cc2)cn1 [Example 1p, N-(2-[3-Carbamimidoylindol-5-yl]ethyl)-4-(6-methoxypyrid-3-yl)benzamide] | 164 to 167 °C
N=C(N)c1c[nH]c2ccc(CCNC(=O)c3ccc(-c4ccc(=O)[nH]c4)cc3)cc12 [Example 1v, N-(2-[3-carbamimidoyl-1H-indol-5-yl]ethyl)-4-(6-oxo-1,6-dihydro-pyrid-3-yl)benzamide] | 152 to 156 °C
N=C(N)c1c[nH]c2ccc(CCNC(=O)c3ccc(NCCO)nc3)cc12 [Example 1z, N-(2-[3-Carbamimidoylindol-5-yl]ethyl)-6-(2-hydroxyethylamino)nicotinamide] | 102 to 105 °C

system: rabbit carotid artery air-drying injury model; details: after vascular injury; cited from earlier work

Structure (SMILES) | neointimal proliferation
CC(=N)N1CC[C@H](Oc2ccc([C@H](Cc3ccc4ccc(C(=N)N)cc4c3)C(=O)O)cc2)C1 [DX-9065a] | less neointimal proliferation

From patent US6541505B1, “Substituted (aminoiminomethyl or aminomethyl) benzoheteroaryl compounds” (Aventis Pharmaceuticals Inc., priority 1998, dated 2003)
